# Publication PMC11784183, “Identification of an antibiotic from an HTS targeting EF-Tu:tRNA interaction: a prospective topical treatment for MRSA skin infections” (Applied and Environmental Microbiology, 2024)
# Tested on: S. aureus USA300 subcutaneous infection
# Experiment: Mouse skin infection model, topical ointment
# Format: in vivo, mice
# Conditions: topical ointment daily
structure (smiles),measurement,setting,value
"C/C(=C\C(=O)OCCCCCCCCC(=O)O)C[C@@H]1OC[C@H](C[C@@H]2O[C@H]2[C@@H](C)[C@H](C)O)[C@@H](O)[C@H]1O [mupirocin, reference compound]",dermonecrosis as a result of S. aureus infection (area over time),"5 days, vs untreated control (ointment without drug)",not having a significant effect on dermonecrosis
same,bacterial burden in punch biopsies,"day 5, vs untreated control",significantly reduced the bacterial burden
